Data reported in US11897867B2, “6-phenyl-4,5-dihydropyridazin-3(2H)-one derivatives as PDE3A and PDE3B inhibitors for treating cancer” (Bayer Aktiengesellschaft, priority 2017, dated 2024).
pIC50: −log10 of the molar value.

What was measured:
[1] = test system: HeLa cells (cervical cancer); test: Cell proliferation measurement (Cell Titer Glo), HeLa; format: cell-based; conditions: Homo sapiens, 72 h treatment, read-out: Anti-proliferation IC50 HeLa (Cervical cancer)
In short: (§1)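 Cells (1000/well; 500 for HeLa) plated overnight at 37 °C, then exposed to a ≥10-point compound dilution series for 72 h at 37 °C, DMSO 0.3% final as vehicle. Viability read by CellTiter-Glo luminescence; IC50 from 4-parameter fit against untreated wells.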

SK-MEL-3 (melanoma) = test: Cell proliferation measurement (Cell Titer Glo), SK-MEL-3; format: cell-based; conditions: Homo sapiens, SK-MEL3, SK-MEL-3 cells, 72 h treatment, read-out: Anti-proliferation IC50 SK-MEL-3 (melanoma)
In short: as §1

IGR-37 (melanoma) = test: Cell proliferation measurement (Cell Titer Glo), IGR-37; format: cell-based; conditions: Homo sapiens, IGR-37 cells, 72 h treatment, read-out: Anti-proliferation IC50 IGR-37 (melanoma)
Experimental: (§2) The antiproliferative activity of the compounds of the general formula (I) was examined in vitro in human cancer cells. For this purpose, 1000 cells (or 500 HeLa cells) were plated in 384-well plates with appropriate growth medium and incubated at 37° C. overnight. After 24 h, the cells on the test plate were treated with the compounds of the general formula (I) as and incubated at 37° C. for 72 h. The compounds were added to the cells by means of an HP D300 digital dispenser in a 10 (or more)-step dilution series. As control, the cells were treated with vehicle (DMSO at 0.3% final concentration). After 72 h, the cells were treated with 20 μl/well of 50% CTG solution in PBS (Promega Cell Titer Glo (catalogue #G755B and G756B)) and incubated at room temperature for 10 min, and luminescence was measured by means of a VICTOR V (Perkin Elmer), in order to determine cell viability at the end of treatment. The percentage effect on cell growth and the IC50 derived therefrom were determined for each test substance using the values from untreated wells (=percent viability). The IC50 values were calculated using a 4-parameter fit.

human full length PDE3A = target: T1, human full length PDE3A (Homo sapiens, UniProt Q14432); test: PDE3A enzyme inhibition (3H-cAMP Scintillation Proximity Assay); format: biochemical; conditions: PDE3A cell extract from Sf9 cells, 60 min room temperature; read-out: Target IC50 PDE3A IC50
T1 construct: Sf9 cells overexpressing human full length PDE3A; purchased SB Drug Discovery, UK; host or cells: Sf9 cells (cell extract)
T1 sequence (Q14432 whole entry): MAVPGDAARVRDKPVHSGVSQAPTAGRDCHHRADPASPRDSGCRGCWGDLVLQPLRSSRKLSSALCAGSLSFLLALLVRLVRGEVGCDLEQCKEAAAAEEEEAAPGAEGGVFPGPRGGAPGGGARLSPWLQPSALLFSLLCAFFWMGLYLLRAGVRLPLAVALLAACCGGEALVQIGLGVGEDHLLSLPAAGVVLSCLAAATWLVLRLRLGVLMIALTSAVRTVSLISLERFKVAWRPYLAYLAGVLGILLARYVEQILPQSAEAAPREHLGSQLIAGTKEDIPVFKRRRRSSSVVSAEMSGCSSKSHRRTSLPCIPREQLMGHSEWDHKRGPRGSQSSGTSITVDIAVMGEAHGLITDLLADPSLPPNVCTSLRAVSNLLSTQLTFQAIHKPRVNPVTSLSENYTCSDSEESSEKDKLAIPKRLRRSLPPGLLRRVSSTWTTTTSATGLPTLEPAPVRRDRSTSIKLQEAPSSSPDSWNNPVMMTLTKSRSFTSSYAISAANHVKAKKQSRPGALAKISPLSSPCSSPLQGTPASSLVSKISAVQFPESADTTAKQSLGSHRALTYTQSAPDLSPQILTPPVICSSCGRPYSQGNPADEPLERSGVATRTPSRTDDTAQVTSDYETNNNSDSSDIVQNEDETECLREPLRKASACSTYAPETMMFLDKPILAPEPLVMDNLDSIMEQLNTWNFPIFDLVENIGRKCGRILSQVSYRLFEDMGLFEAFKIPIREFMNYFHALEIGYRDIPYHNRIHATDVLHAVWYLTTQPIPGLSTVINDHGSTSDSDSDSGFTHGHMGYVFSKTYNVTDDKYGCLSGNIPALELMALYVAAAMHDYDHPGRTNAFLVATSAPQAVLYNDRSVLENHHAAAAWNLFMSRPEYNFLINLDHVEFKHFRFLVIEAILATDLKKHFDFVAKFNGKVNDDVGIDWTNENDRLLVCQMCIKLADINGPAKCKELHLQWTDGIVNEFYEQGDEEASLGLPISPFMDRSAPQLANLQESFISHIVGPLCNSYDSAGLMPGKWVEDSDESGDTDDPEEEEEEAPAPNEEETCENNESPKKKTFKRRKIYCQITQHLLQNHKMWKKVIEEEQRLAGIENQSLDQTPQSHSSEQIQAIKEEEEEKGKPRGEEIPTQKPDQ
In short: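 Sf9 cell extract overexpressing human full-length PDE3A, diluted for linear kinetics (<70% substrate used), in 50 mM Tris/HCl pH 7.5, 8.3 mM MgCl2, 1.7 mM EDTA, 0.2% BSA. [8-3H]cAMP substrate, 60 min at room temperature, yttrium SPA bead read-out; IC50 from sigmoidal curves of % activity.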

human full length PDE3B = target: T2, human full length PDE3B (Homo sapiens, UniProt Q13370); test: PDE3B enzyme inhibition (3H-cAMP Scintillation Proximity Assay); format: biochemical; conditions: PDE3B cell extract from Sf9 cells, 60 min room temperature; read-out: Target IC50 PDE3B IC50
T2 construct: Sf9 cells overexpressing human full length PDE3B; purchased SB Drug Discovery, UK; host or cells: Sf9 cells (cell extract)
T2 sequence (Q13370 whole entry): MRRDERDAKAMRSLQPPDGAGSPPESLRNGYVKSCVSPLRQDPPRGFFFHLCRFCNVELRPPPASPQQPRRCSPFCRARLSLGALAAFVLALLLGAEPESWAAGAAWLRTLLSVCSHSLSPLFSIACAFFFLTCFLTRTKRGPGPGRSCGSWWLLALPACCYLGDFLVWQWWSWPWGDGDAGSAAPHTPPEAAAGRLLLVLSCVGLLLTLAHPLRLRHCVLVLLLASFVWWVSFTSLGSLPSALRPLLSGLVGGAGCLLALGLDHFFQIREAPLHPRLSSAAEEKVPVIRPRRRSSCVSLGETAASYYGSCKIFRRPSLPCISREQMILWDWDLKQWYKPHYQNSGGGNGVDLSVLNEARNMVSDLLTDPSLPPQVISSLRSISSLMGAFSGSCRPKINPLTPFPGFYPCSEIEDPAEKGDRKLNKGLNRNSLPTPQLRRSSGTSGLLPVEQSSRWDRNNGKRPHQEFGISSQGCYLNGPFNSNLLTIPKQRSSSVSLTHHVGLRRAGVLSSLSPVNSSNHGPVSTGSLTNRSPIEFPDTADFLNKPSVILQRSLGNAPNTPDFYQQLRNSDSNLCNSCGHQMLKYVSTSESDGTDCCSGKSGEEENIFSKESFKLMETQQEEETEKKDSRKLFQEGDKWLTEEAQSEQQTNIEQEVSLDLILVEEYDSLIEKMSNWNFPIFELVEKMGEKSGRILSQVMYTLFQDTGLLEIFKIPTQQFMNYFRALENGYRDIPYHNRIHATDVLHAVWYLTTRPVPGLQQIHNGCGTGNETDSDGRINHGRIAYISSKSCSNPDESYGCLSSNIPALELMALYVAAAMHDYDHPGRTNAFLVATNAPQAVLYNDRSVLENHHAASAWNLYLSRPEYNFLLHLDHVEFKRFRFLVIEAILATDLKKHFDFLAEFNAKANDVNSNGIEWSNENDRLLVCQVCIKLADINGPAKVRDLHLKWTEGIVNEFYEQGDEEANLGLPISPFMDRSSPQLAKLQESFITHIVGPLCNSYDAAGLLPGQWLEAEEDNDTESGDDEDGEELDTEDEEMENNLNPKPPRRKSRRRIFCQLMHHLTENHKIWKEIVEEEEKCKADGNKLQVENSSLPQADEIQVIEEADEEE
In short: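 SPA with Sf9 cell extract overexpressing human full-length PDE3B, diluted for linear kinetics and <70% substrate turnover, in 50 mM Tris/HCl pH 7.5, 8.3 mM MgCl2, 1.7 mM EDTA, 0.2% BSA. [8-3H]cAMP substrate, 60 min at room temperature, stopped with yttrium SPA beads. IC50 from sigmoidal fit of % activity vs log concentration.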

NCI-H1734 = test: Cell proliferation measurement (Cell Titer Glo), NCI-H1734; format: cell-based; conditions: Homo sapiens, NCI-H1734 cells, 72 h treatment, read-out: Anti-proliferation IC50 NCI-H1734
Experimental: as §2

H4 = test: Cell proliferation measurement (Cell Titer Glo), H4; format: cell-based; conditions: Homo sapiens, H4 cells, 72 h treatment, read-out: Anti-proliferation IC50 H4
Experimental: as §2

SMILES | pIC50 [1] | pIC50 (SK-MEL-3 (melanoma)) | pIC50 (IGR-37 (melanoma)) | pIC50 (human full length PDE3A) | pIC50 (human full length PDE3B) | pIC50 (NCI-H1734) | pIC50 (H4)
O=C1CCC(c2ccc(-c3ccc(F)cc3)c(C(F)(F)F)c2)=NN1 [Example 128, 6-[4′-fluoro-2-(trifluoromethyl)[1,1′-biphenyl]-4-yl]-4,5-dihydropyridazin-3(2H)-one] | 8.11 | 7.82 | 7.46 | 6.62 | 6.68 | – | –
O=C1CCC(c2ccc(-c3cnn(C(F)F)c3)c(C(F)(F)F)c2)=NN1 [Example 127, 6-{4-[1-(difluoromethyl)-1H-pyrazol-4-yl]-3-(trifluoromethyl)phenyl}-4,5-dihydropyridazin-3(2H)-one] | 8.75 | 8.44 | 8.27 | 7.14 | 7.11 | – | –
O=C1CCC(c2ccc(Cl)c(Cl)c2)=NN1 [Example 125, 6-(3,4-Dichlorophenyl)-4,5-dihydropyridazin-3(2H)-one] | 7.80 | 7.44 | 7.26 | 6.20 | 6.47 | – | –
O=C1CCC(c2ccc(-n3ccc(C(F)(F)F)n3)c(F)c2)=NN1 [Example 131, 6-{3-fluoro-4-[3-(trifluoromethyl)-1H-pyrazol-1-yl]phenyl}-4,5-dihydropyridazin-3(2H)-one] | 7.75 | 7.44 | 7.36 | 6.21 | 6.41 | – | –
O=C1CCC(c2cc(Cl)c(N3CCOCC3)c(Cl)c2)=NN1 [Example 124, 6-[3,5-dichloro-4-(morpholin-4-yl)phenyl]-4,5-dihydropyridazin-3(2H)-one] | 8.16 | 7.77 | 7.48 | 7.23 | 7.14 | – | –
O=C1CCC(c2ccc(NCC(O)C(F)(F)F)c(C(F)(F)F)c2)=NN1 (racemic) [Example 130, 6-[4-{[3,3,3-trifluoro-2-hydroxypropyl]amino}-3-(trifluoromethyl)phenyl]-4,5-dihydropyridazin-3(2H)-one (racemic)] | 8.36 | 8.06 | 8.04 | 7.05 | 7.07 | – | –
O=C1CCC(c2ccc(N3CCOCC3)cc2)=NN1 [Example 123, 6-[4-(morpholin-4-yl)phenyl]-4,5-dihydropyridazin-3(2H)-one] | 7.10 | < 7.00 | 6.56 | – | < 6.00 | – | –
Cc1cc(C2=NNC(=O)CC2)ccc1-c1ccc(F)cc1 [Example 3, 6-(4′-Fluoro-2-methylbiphenyl-4-yl)-4,5-dihydropyridazin-3(2H)-one] | 8.34 | 8.07 | – | 6.72 | 6.82 | 7.56 | 7.44
O=C1CCC(c2cc(F)c(N3CC4CC4C3)c(F)c2)=NN1 (centres unmarked) [Example 14, 6-[4-(3-Azabicyclo[3.1.0]hex-3-yl)-3,5-difluorophenyl]-4,5-dihydropyridazin-3(2H)-one] | 8.67 | 8.23 | – | 6.74 | 7.11 | 7.73 | 7.51
COCCNc1ccc(C2=NNC(=O)CC2)cc1C(F)(F)F [Example 129, 6-{4-[(2-methoxyethyl)amino]-3-(trifluoromethyl)phenyl}-4,5-dihydropyridazin-3(2H)-one] | 8.67 | 8.34 | 8.32 | 6.92 | 6.68 | – | –
O=C1CCC(c2ccc(N3CCC(F)(F)C3)c(C(F)(F)F)c2)=NN1 [Example 22, 6-[4-(3,3-Difluoropyrrolidin-1-yl)-3-(trifluoromethyl)phenyl]-4,5-dihydropyridazin-3(2H)-one] | 8.28 | 6.14 | 8.05 | 6.80 | 6.83 | – | –
Cc1cc(C2=NNC(=O)CC2)ccc1-c1cccnc1 [Example 2, 6-[3-Methyl-4-(pyridin-3-yl)phenyl]-4,5-dihydropyridazin-3(2H)-one] | 8.24 | 7.84 | – | 7.19 | 7.17 | – | –
Cc1ccncc1-c1ccc(C2=NNC(=O)CC2)cc1F [Example 67, 6-[3-fluoro-4-(4-methylpyridin-3-yl)phenyl]-4,5-dihydropyridazin-3(2H)-one] | 8.68 | 8.44 | – | 7.25 | 7.55 | – | –
O=C1CCC(c2cc(F)c(N3CCC(F)(F)C3)c(F)c2)=NN1 [Example 13, 6-[4-(3,3-Difluoropyrrolidin-1-yl)-3,5-difluorophenyl]-4,5-dihydropyridazin-3(2H)-one] | 8.25 | 7.86 | – | 6.51 | 6.60 | 7.49 | 7.39
Cc1cc(C2=NNC(=O)CC2)ccc1-c1cc(F)ccc1F [Example 98, 6-(2′,5′-difluoro-2-methyl[1,1′-biphenyl]-4-yl)-4,5-dihydropyridazin-3(2H)-one] | 7.90 | 7.19 | – | 6.74 | 6.92 | – | –
